# Test results reported in patent US11123316B2, “Imaging composition and uses thereof” (The University of Melbourne, priority 2014, dated 2021).
# Experiment: Competition Study 2: ZrCl4(THF)2 added to mixture of DFOPhSO3H and DFOSqTaur, ESI-MS
# Format: binding
# Details: 50° C., 7 hours, FIG. 46
# Protocol: A 3 mM stock solution of each ligand, DFOPhSO3H and DFOSqTaur, was prepared in a mixture of H2O and MeOH (concentrations were confirmed prior to dilution by UV-Vis Fe^3+ titration in H2O, 430 nm). A mixture of both solutions (25 uL each) was mixed thoroughly and heated to 50° C. A stock solution of ZrCl4(THF)2 in H2O/MeOH (3 mM) was also prepared, and 20 uL of this was added to the ligand mixture. The mixture was incubated at 50° C. for 7 hours.
smiles,measurement,value
CC(=O)N(O)CCCCCNC(=O)CCC(=O)N(O)CCCCCNC(=O)CCC(=O)N(O)CCCCCNc1c(NCCS(=O)(=O)O)c(=O)c1=O [DFOSqTaur],Zr complex found in competition with DFOPhSO3H,presence of the ZrDFOSqTaur complex
